Measurements taken from patent US10023602B2, “Hamamelitannin analogues and uses thereof” (Universiteit Gent, priority 2014, dated 2018).

Experiments:
[1] = tested on: methicillin resistant S. aureus Mu50 strain (S. aureus ATCC700699) biofilm; assay: Biofilm susceptibility to vancomycin, pre-treatment regimen (biofilm formed in presence of compound, then vancomycin); type: cell-based; settings: for Pretreat (100 μM): percentage Colony Forming Units (CFU's) per biofilm: compound 100 μM during biofilm formation; for EC50: concentration needed to get 50% killing compared to antibiotic alone (VAN 20 μg/ml) and complete killing, read-out: Pretreat. (EC50)
Procedure, shortened: (§1)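 Mu50 biofilms from 10^8 CFU/ml inoculum (4 h adhesion, then 20 h, 37 °C). Pre-treatment: compound (0.1-250 μM) present during biofilm formation, then vancomycin 20 μg/ml alone 24 h; combination: mature biofilm given vancomycin 20 μg/ml plus compound 24 h. Survivors counted by plating versus vancomycin alone.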

[2] = tested on: methicillin resistant S. aureus Mu50 strain (S. aureus ATCC700699) biofilm; assay: Biofilm susceptibility to vancomycin, combination treatment regimen (mature biofilm treated with compound plus vancomycin); type: cell-based; settings: for Combin. (100 μM): percentage Colony Forming Units (CFU's) per biofilm: compound 100 μM together with VAN 20 μg/ml on mature biofilm; for EC50: concentration needed to get 50% killing compared to antibiotic alone (VAN 20 μg/ml) and complete killing, read-out: Combin. (EC50)
Procedure, shortened: as §1

[3] = then VAN 20 μg/ml, compared to the untreated (negative) control
[4] = compared to the untreated (negative) control

Compound | Pretreat (100 μM): percentage Colony Forming Units (CFU's) per biofilm [1, 3] | EC50 [1] | Combin. (100 μM): percentage Colony Forming Units (CFU's) per biofilm [2, 4] | EC50 [2] | Pretreat. (25 μM): percentage Colony Forming Units (CFU's) per biofilm ([1]; compound 25 μM during biofilm formation, then VAN 20 μg/ml, compared to the untreated (negative) control) | Combin. (25 μM): percentage Colony Forming Units (CFU's) per biofilm ([2]; compound 25 μM together with VAN 20 μg/ml on mature biofilm, compared to the untreated (negative) control)
O=C(NC[C@H]1OC[C@@](O)(CNC(=O)c2ccnnc2)[C@@H]1O)c1ccc(-c2ccccc2)cc1 [compound 256, N-(((3S,4R,5R)-5-([1,1′-biphenyl]-4-carboxamidomethyl)-3,4-dihydroxytetrahydrofuran-3-yl)methyl)pyridazine-4-carboxamide] | 14.25 percentage | 15.5 µM | 29.97 percentage | 53.4 µM |  | 
O=C(NC[C@]1(O)CO[C@H](CNS(=O)(=O)c2ccc(-c3ccccc3)cc2)[C@H]1O)c1ccccc1 [compound 219, N-(((3S,4R,5R)-5-(([1,1′-biphenyl]-4-sulfonamido)methyl)-3,4-dihydroxytetrahydrofuran-3-yl)methyl)benzamide] | 16.13 percentage |  | 17.02 percentage |  |  | 
O=C(NC[C@H]1OC[C@@](O)(CNC(=O)c2ccccc2)[C@@H]1O)c1ccc(C(F)(F)F)cc1 [compound 157, N-(((2R,3R,4S)-4-(benzamidomethyl)-3,4-dihydroxytetrahydrofuran-2-yl)methyl)-4-(trifluoromethyl)benzamide] | 15.95 percentage |  | 11.25 percentage |  |  | 
O=C(NC[C@H]1OC[C@@](O)(CNC(=O)c2ccnnc2)[C@@H]1O)c1ccnnc1 [compound 257, N,N′-(((2R,3R,4S)-3,4-dihydroxytetrahydrofuran-2,4-diyl)bis(methylene))bis(pyridazine-4-carboxamide)] | 1.71 percentage | 7.13 µM | 17.13 percentage | 18 µM |  | 
CN(C)c1ccc(C(=O)NC[C@H]2OC[C@@](O)(CNC(=O)c3ccccc3)[C@@H]2O)cc1 [compound 156, N-(((2R,3R,4S)-4-(benzamidomethyl)-3,4-dihydroxytetrahydrofuran-2-yl)methyl)-4-(dimethylamino)benzamide] | 16.58 percentage |  | 11.27 percentage |  |  | 
CN(C)c1ccccc1C(=O)NC[C@H]1OC[C@@](O)(CNC(=O)c2ccccc2)[C@@H]1O [compound 174, N-(((2R,3R,4S)-4-(benzamidomethyl)-3,4-dihydroxytetrahydrofuran-2-yl)methyl)-2-(dimethylamino)benzamide] | 28.01 percentage |  | 11.11 percentage |  |  | 
CCS(=O)(=O)NC[C@H]1OC[C@@](O)(CNC(=O)c2ccccc2)[C@@H]1O [compound 212, N-(((3S,4R,5R)-5-(ethylsulfonamidomethyl)-3,4-dihydroxytetrahydrofuran-3-yl)methyl)benzamide] | 50.68 percentage |  | 52.64 percentage |  |  | 
O=C(NC[C@]1(O)CO[C@H](CNC(=O)c2ccccc2I)[C@H]1O)c1ccccc1 [compound 179, N-(((2R,3R,4S)-4-(benzamidomethyl)-3,4-dihydroxytetrahydrofuran-2-yl)methyl)-2-iodobenzamide] | 3.84 percentage | 1.85 µM | 16.46 percentage | 20.4 µM |  | 
O=C(NC[C@]1(O)CO[C@H](CNC(=O)c2cnccc2Cl)[C@H]1O)c1ccccc1 [compound 201, N-(((2R,3R,4S)-4-(benzamidomethyl)-3,4-dihydroxytetrahydrofuran-2-yl)methyl)-4-chloronicotinamide] | 51.81 percentage | 200 µM | 74.81 percentage | > 250 µM |  | 
Cc1ccc(C(=O)NC[C@H]2OC[C@@](O)(CNC(=O)c3ccccc3)[C@@H]2O)cc1 [compound 151, N-(((2R,3R,4S)-4-(benzamidomethyl)-3,4-dihydroxytetrahydrofuran-2-yl)methyl)-4-methylbenzamide] | 22.36 percentage |  | 24.59 percentage |  |  | 
COc1cc(C(=O)NC[C@H]2OC(O)[C@@](O)(CNC(=O)c3cc(OC)c(OC)c(OC)c3)[C@@H]2O)cc(OC)c1OC (stereo partly drawn) [compound 16, N,N′-(((2R,3R,4R)-3,4,5-trihydroxytetrahydrofuran-2,4-diyl)bis(methylene))bis(3,4,5-trimethoxybenzamide)] | 62.41 percentage | 207 µM | 71.85 percentage | 238 µM |  | 
COc1ccc(C(=O)NC[C@]2(O)CO[C@H](CNC(=O)c3ccccc3Cl)[C@H]2O)cc1 [compound 235, 2-chloro-N-(((2R,3R,4S)-3,4-dihydroxy-4-((4-methoxybenzamido)methyl)tetrahydrofuran-2-yl)methyl)benzamide] |  |  |  |  | 66.10 percentage | 57.35 percentage
O=C(NC[C@]1(O)CO[C@H](CN2C(=O)c3ccccc3C2=O)[C@H]1O)c1ccnnc1 [compound 258, N-(((3S,4R,5R)-5-((1,3-dioxoisoindolin-2-yl)methyl)-3,4-dihydroxytetrahydrofuran-3-yl)methyl)pyridazine-4-carboxamide] | 0.73 percentage | 5.85 µM | 23.56 percentage | 11.4 µM |  | 
O=C(NC[C@H]1OC[C@@](O)(CNC(=O)c2ccccc2Cl)[C@@H]1O)c1ccccc1Cl [compound 249, N,N′-(((2R,3R,4S)-3,4-dihydroxytetrahydrofuran-2,4-diyl)bis(methylene))bis(2-chlorobenzamide)] | 6.67 percentage | 5.36 µM | 13.59 percentage | 28.4 µM |  | 
O=C(Cc1ccccc1)NC[C@H]1OC[C@@](O)(CNC(=O)c2ccccc2)[C@@H]1O [compound 189, N-(((3S,4R,5R)-3,4-dihydroxy-5-((2-phenylacetamido)methyl)tetrahydrofuran-3-yl)methyl)benzamide] | 59.77 percentage |  | 58.95 percentage |  |  | 
O=C(NC[C@]1(O)CO[C@H](CNC(=O)c2ncccn2)[C@H]1O)c1ccccc1 [compound 203, N-(((2R,3R,4S)-4-(benzamidomethyl)-3,4-dihydroxytetrahydrofuran-2-yl)methyl)pyrimidine-2-carboxamide] | 41.20 percentage |  | 31.95 percentage |  |  | 
O=C(NC[C@H]1OC(O)[C@@](O)(CNC(=O)c2cc(O)c(O)c(O)c2)[C@@H]1O)c1cc(O)c(O)c(O)c1 (stereo partly drawn) [compound 15, N,N′-(((2R,3R,4R)-3,4,5-trihydroxytetrahydrofuran-2,4-diyl)bis(methylene))bis(3,4,5-trihydroxybenzamide)] | 22.35 percentage | 63.8 µM | 57.74 percentage | 191 µM |  | 
O=C(NC[C@H]1OC[C@@](O)(CNC(=O)c2ccccc2)[C@@H]1O)c1ccc(Cl)c(Cl)c1 [compound 182, N-(((2R,3R,4S)-4-(benzamidomethyl)-3,4-dihydroxytetrahydrofuran-2-yl)methyl)-3,4-dichlorobenzamide] | 42.13 percentage |  | 33.81 percentage |  |  | 
O=C(NC[C@]1(O)CO[C@H](CNC(=O)c2ccccc2Cl)[C@H]1O)c1ccnnc1 [compound 255, N-(((3S,4R,5R)-5-((2-chlorobenzamido)methyl)-3,4-dihydroxytetrahydrofuran-3-yl)methyl)pyridazine-4-carboxamide] | 8.03 percentage | 15 µM | 25.78 percentage | 55.7 µM |  | 
Cc1ccc(S(=O)(=O)NC[C@H]2OC[C@@](O)(CNC(=O)c3ccccc3)[C@@H]2O)cc1 [compound 216, N-(((3S,4R,5R)-3,4-dihydroxy-5-(((4-methylphenyl)sulfonamido)methyl)tetrahydrofuran-3-yl)methyl)benzamide] | 16.96 percentage |  | 25.95 percentage |  |  | 
